Test results as given in PubChem BioAssay (NCI).
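These data come from cells grown in 96-well plates and exposed to compound for 48 hours at five concentrations. GI50: concentration for 50% inhibition of growth. TGI denotes the concentration required for complete inhibition of growth.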

Legend:
Assay in all cases: NCI-60 cell line screen, 48 h
SK-OV-3 ovarian = test system: SK-OV-3 ovarian
HCC-2998 colon = test system: HCC-2998 colon
MOLT-4 leukemia = test system: MOLT-4 leukemia
SF-295 CNS = test system: SF-295 CNS
COLO 205 colon = test system: COLO 205 colon
HT29 colon = test system: HT29 colon
UACC-62 melanoma = test system: UACC-62 melanoma
RPMI-8226 leukemia = test system: RPMI-8226 leukemia
MDA-MB-231 breast = test system: MDA-MB-231 breast
IGROV1 ovarian = test system: IGROV1 ovarian
CCRF-CEM leukemia = test system: CCRF-CEM leukemia
HCT-116 colon = test system: HCT-116 colon

SMILES	TGI (SK-OV-3 ovarian)	TGI (HCC-2998 colon)	TGI (MOLT-4 leukemia)	TGI (SF-295 CNS)	TGI (COLO 205 colon)	TGI (HT29 colon)	TGI (UACC-62 melanoma)	TGI (RPMI-8226 leukemia)	TGI (MDA-MB-231 breast)	TGI (IGROV1 ovarian)	TGI (CCRF-CEM leukemia)	TGI (HCT-116 colon)	GI50 (SK-OV-3 ovarian)	GI50 (MOLT-4 leukemia)	GI50 (COLO 205 colon)	GI50 (HT29 colon)	GI50 (RPMI-8226 leukemia)	GI50 (MDA-MB-231 breast)	GI50 (IGROV1 ovarian)	GI50 (CCRF-CEM leukemia)
COc1cc(CC2CCc3nc(N)nc(N)c3C2)cc(OC)c1OC (stereo unspecified)	> 100 µM	> 46.9 µM	> 100 µM	> 51.3 µM	21.6 µM	> 100 µM	> 100 µM	> 68.4 µM	> 100 µM	98.2 µM										
CCSC(=Nc1ccccc1)SC	> 100 µM	> 100 µM	> 100 µM	> 100 µM	> 100 µM	> 100 µM	> 100 µM	> 100 µM		> 100 µM	> 100 µM	> 100 µM								
CC(N)Cc1cccc(C(F)(F)F)c1 (stereo unspecified)	> 100 µM	> 100 µM		> 100 µM	> 100 µM	> 100 µM	> 100 µM	> 100 µM		> 100 µM	> 100 µM	> 100 µM								
N#CN=Nc1cc(Cl)c(N=NC#N)cc1Cl	> 100 µM	> 100 µM	> 100 µM	> 100 µM	> 100 µM	> 100 µM	> 100 µM			> 100 µM	92.2 µM	> 100 µM								
C#CCCCC(=C)C[C@H](OCc1ccccc1)[C@H]1OC(=O)[C@@H]1C	> 100 µM	> 100 µM		> 100 µM			> 100 µM	83.7 µM	63.3 µM		> 100 µM									
NC(=O)/N=C(\N)NC(=O)c1ccccc1		> 100 µM	> 100 µM	> 100 µM		> 100 µM	> 100 µM		> 100 µM	> 100 µM		> 100 µM								
CN(C)CCOc1cc2c(c3ccccc13)-c1ccccc1C2=O	24.6 µM	4.68 µM	3.92 µM	4.42 µM	3.68 µM	3.44 µM	2.97 µM	4.27 µM		7.35 µM	10.8 µM	2.93 µM								
COC(=O)c1cccc(NC(=O)Nc2ccc3oc(=O)c4ccccc4c3c2)c1	> 100 µM		> 100 µM		> 100 µM	> 100 µM		> 100 µM	> 100 µM	> 100 µM	26.2 µM		> 100 µM	36.2 µM	> 100 µM	> 100 µM	24.5 µM	3.89 µM	> 100 µM	12.1 µM
Cc1nc(Nc2nnc(-c3cc([N+](=O)[O-])cc([N+](=O)[O-])c3C)o2)sc1C(=O)CC(=O)Cc1nc2ccc(Cl)cc2[nH]c1=O	> 100 µM	> 100 µM	> 100 µM	> 100 µM	> 100 µM	> 100 µM	> 100 µM	> 100 µM		> 100 µM	> 100 µM	> 100 µM								
CO/C(=N/N1CC1C(F)(F)F)c1ccncc1 (stereo unspecified)	> 100 µM		> 100 µM	> 100 µM	> 100 µM	> 100 µM	> 100 µM	> 100 µM	> 100 µM	> 100 µM	> 100 µM	> 100 µM								
O=C(CCl)N1CCCCC1C1(c2cc3ccccc3[nH]2)OCCO1 (stereo unspecified)	20.2 µM	26.9 µM	15.8 µM	11.5 µM	12.1 µM	17.6 µM	7.87 µM	13.7 µM	12.8 µM	0.558 µM		10.2 µM								
